According to patent publication EP3046573B1, “AMYLIN ANALOGUES” (Zealand Pharma A/S, priority 2013, dated 2015):
Read-outs that look alike come from different tables or passages of the source. Marks after values point to notes of the source that are not given here. Numbered stars: 1 amine (or outer) side, 2 acyl side, 3 side chain; on linkers, the order of the positions; unused ones are H or OH. Bridge positions count the residues as written; N and C are the ends. Square brackets hold non-standard residues; d marks the D form. Peptide text beside a SMILES is read from it. * marks the point of attachment. C20 diacid = O=C(O)CCCCCCCCCCCCCCCCCCC(=O)*; γGlu = O=C(O)[C@H](CCC(=O)[*:2])N[*:1]; NMeI = CC[C@H](C)[C@H](NC)C(=O)O; Sar = CNCC(=O)O

Assays:
[1] = molecular target: T1, human amylin receptor 3 (hAMYR3) consisting of hCTR2 co-expressed with human Receptor Activity Modifying Protein 3 (hRAMP3) (Homo sapiens, UniProt O60896+P30988); assay: hAMYR3 assay: induction of cAMP (AlphaScreen cAMP Assay kit) in COS7 cells expressing hAMYR3; assay type: cell-based
T1 construct: expressed in transfected cells
T1 sequence (P30988 25-474): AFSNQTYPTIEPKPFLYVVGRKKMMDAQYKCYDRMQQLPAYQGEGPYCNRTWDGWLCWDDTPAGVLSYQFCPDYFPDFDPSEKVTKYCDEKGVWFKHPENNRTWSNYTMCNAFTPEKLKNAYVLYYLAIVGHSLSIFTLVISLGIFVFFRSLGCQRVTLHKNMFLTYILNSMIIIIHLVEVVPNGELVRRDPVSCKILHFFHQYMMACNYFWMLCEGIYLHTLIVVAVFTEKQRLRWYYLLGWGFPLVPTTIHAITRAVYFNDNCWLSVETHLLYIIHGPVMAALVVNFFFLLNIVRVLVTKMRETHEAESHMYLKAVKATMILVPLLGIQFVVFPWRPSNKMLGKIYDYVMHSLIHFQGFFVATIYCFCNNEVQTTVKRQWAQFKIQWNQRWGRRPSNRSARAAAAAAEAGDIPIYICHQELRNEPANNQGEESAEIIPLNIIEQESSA
T1 sequence (O60896 24-148 partner): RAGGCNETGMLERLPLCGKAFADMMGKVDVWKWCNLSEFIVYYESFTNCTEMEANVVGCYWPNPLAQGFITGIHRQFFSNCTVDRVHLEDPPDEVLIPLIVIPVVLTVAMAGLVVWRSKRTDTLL
Method in brief: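 cAMP accumulation read by AlphaScreen in lysates of RAMP-naive COS7 cells stably transfected with hCTR2 plus hRAMP3. Cells exposed to peptide dilutions for 15 min, 37° C, with 100 µM IBMX; 4PL fitting gave EC50 and efficacy relative to pramlintide.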

[2] = Assessment of physical stability: fibril formation detected with Thioflavin T (ThT), lag-time; assay type: physicochemical; conditions: 1 mg/ml peptide, 40 µM ThT, FND = Fibrillation not detected; for Fibrillation lag time (hours) pH 4.0 (Ac): 50 mM acetate buffer pH 4.0, 96 hours at 40°C; for Fibrillation lag time (hours) pH 7.0 (His): 50 mM histidine buffer pH 7.0, 96 hours at 40°C; for Fibrillation lag time (hours) pH 7.0 (Ph): 50 mM phosphate buffer pH 7.0, 96 hours at 40°C
Method in brief: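 Test peptide at 1 mg/ml with 40 µM ThT in 50 mM phosphate (pH 7.0), 50 mM histidine (pH 7.0) or 50 mM acetate (pH 4.0), in triplicate, 40° C. for 96 h. Fluorescence read every 10 min after 300 s agitation. Lag-time (h) taken as intersection of linear fits to initial stable and growth phases.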

[3] = Assessment of chemical stability: normalized purity by RP-HPLC after incubation at 40 °C; assay type: physicochemical; conditions: normalized purity (T=0 set to 100), 0.2 mg/ml; for Chem. stability; 7 days, 40°C pH 4: pH 4, 7 days; for Chem. stability; 7 days, 40°C pH 7.5: pH 7.5, 7 days; for Chem. stability; 7 days, 40°C pH 9: pH 9, 7 days
Description: Samples of each test peptide were dissolved in MilliQ™ water, and the pH of the solution was adjusted to pH 4, pH 7.5 or pH 9, respectively, using either HCI or NaOH. The final peptide concentration was 0.2 mg/ml. Samples were placed in glass vials and incubated at 40 °C. The samples were analyzed by RP-HPLC on a C8 column with gradient elution using an ammonium formate/water eluent system, or on a C18 column with gradient elution using a trifluoroacetic acid/water eluent system. The area-percentage (area-%) of the main peak after incubation time T = t (relative to time T = 0) was determined by UV spectroscopy at 220 nm.
The purity was first determined as follows: Purity(area−%) = (area of main peak/total area of all peaks) × 100. [formula]
The purity was then normalized between time points by setting purity at time 0 (T=0) to 100 for each pH value for a given peptide, as follows: Normalised area−%at time t(T = t) = [area−%(T = t)/area−%(T = 0)] × 100. [formula]
The normalized purity values in Table 2 were determined after 7 days of incubation. Table 2. EC50, chemical stability and fibrillation data for compounds of the invention

EC50 ([1]; cAMP induction in COS7 cells expressing hAMYR3, average of a minimum of 3 determinations, read-out: hAMY R3 EC50) | Compound | EC50 [1] | Fibrillation lag time (hours) pH 4.0 (Ac) [2] | Fibrillation lag time (hours) pH 7.0 (His) [2] | Fibrillation lag time (hours) pH 7.0 (Ph) [2] | Chem. stability; 7 days, 40°C pH 4 [3] | Chem. stability; 7 days, 40°C pH 7.5 [3] | Chem. stability; 7 days, 40°C pH 9 [3]
 | CC[C@H](C)[C@@H](C(=O)N[C@@H](CC(C)C)C(=O)N[C@@H](CO)C(=O)N[C@@H](CO)C(=O)N[C@H](C(=O)N[C@@H](CC(N)=O)C(=O)N[C@H](C(=O)NCC(=O)N[C@@H](CO)C(=O)N[C@@H](CC(N)=O)C(=O)N[C@H](C(=O)N1CCC[C@H]1C(N)=O)[C@@H](C)O)C(C)C)[C@@H](C)O)N(C)C(=O)[C@H](C)NC(=O)CN(C)C(=O)[C@H](Cc1ccccc1)NC(=O)[C@H](CC(N)=O)NC(=O)[C@H](CC(N)=O)NC(=O)[C@H](CO)NC(=O)[C@H](CO)NC(=O)[C@H](Cc1c[nH]cn1)NC(=O)[C@H](Cc1c[nH]cn1)NC(=O)[C@H](CC(C)C)NC(=O)[C@H](Cc1ccccc1)NC(=O)[C@H](CCC(=O)O)NC(=O)[C@H](C)NC(=O)[C@H](CC(C)C)NC(=O)[C@H](CCCNC(=N)N)NC(=O)[C@H](CCC(N)=O)NC(=O)[C@@H](NC(=O)[C@H](C)NC(=O)[C@@H]1CSSC[C@H](NC(=O)[C@H](CCCNC(=N)N)NC(=O)CC[C@H](NC(=O)CCCCCCCCCCCCCCCCCCC(=O)O)C(=O)O)C(=O)N[C@@H](CC(N)=O)C(=O)N[C@@H]([C@@H](C)O)C(=O)N[C@@H](C)C(=O)N[C@@H]([C@@H](C)O)C(=O)N1)[C@@H](C)O [Compound 1, [19CD]-isoGlu-RC()NTATC()ATQRLAEFLHHSSNNF-Gly(Me)-A-Ile(Me)-LSSTNVGSNTP-NH2] ({C20 diacid-γGlu}-RCNTATCATQRLAEFLHHSSNNF[Sar]A[NMeI]LSSTNVGSNTP-NH2; disulfide 2-7) | 0.21 nM | FND^§§ | FND | FND | 89 area-% | 64 area-% | 56 area-%
 | CC[C@H](C)[C@@H](C(=O)N[C@@H](CC(C)C)C(=O)N[C@H](CO)C(=O)N[C@@H](CO)C(=O)N[C@H](C(=O)N[C@@H](CC(N)=O)C(=O)N[C@H](C(=O)NCC(=O)N[C@@H](CO)C(=O)N[C@@H](CC(N)=O)C(=O)N[C@H](C(=O)N1CCC[C@H]1C(N)=O)[C@@H](C)O)C(C)C)[C@@H](C)O)N(C)C(=O)[C@H](C)NC(=O)CN(C)C(=O)[C@@H](Cc1ccccc1)NC(=O)[C@H](CC(N)=O)NC(=O)[C@H](CC(N)=O)NC(=O)[C@H](CO)NC(=O)[C@H](CO)NC(=O)[C@H](CCCNC(=N)N)NC(=O)[C@H](Cc1c[nH]cn1)NC(=O)[C@H](CC(C)C)NC(=O)[C@H](Cc1ccccc1)NC(=O)[C@H](CCC(=O)O)NC(=O)[C@H](C)NC(=O)[C@H](CC(C)C)NC(=O)[C@H](CCCNC(=N)N)NC(=O)[C@H](CCC(N)=O)NC(=O)[C@@H](NC(=O)[C@H](C)NC(=O)[C@@H]1CSSC[C@H](NC(=O)[C@H](CCCCN)NC(=O)CC[C@H](NC(=O)CCCCCCCCCCCCCCCCCCC(=O)O)C(=O)O)C(=O)N[C@@H](CC(N)=O)C(=O)N[C@@H]([C@@H](C)O)C(=O)N[C@@H](C)C(=O)N[C@@H]([C@@H](C)O)C(=O)N1)[C@@H](C)O [Compound 72, [19CD]-isoGlu-KC()NTATC()ATQRLAEFLHRSSNN-DPhe-Gly(Me)-A-Ile(Me)-L-DSer-STNVGSNTP] ({C20 diacid-γGlu}-KCNTATCATQRLAEFLHRSSNN[dF][Sar]A[NMeI]L[dS]STNVGSNTP-NH2; disulfide 2-7) | 0.098 nM | FND | FND | FND | 90 area-% | 81 area-% | 80 area-%
 | CC[C@H](C)[C@@H](C(=O)N[C@@H](CC(C)C)C(=O)N[C@@H](CO)C(=O)N[C@@H](CO)C(=O)N[C@H](C(=O)N[C@@H](CC(N)=O)C(=O)N[C@H](C(=O)NCC(=O)N[C@@H](CO)C(=O)N[C@@H](CC(N)=O)C(=O)N[C@H](C(=O)N1CCC[C@H]1C(N)=O)[C@@H](C)O)C(C)C)[C@@H](C)O)N(C)C(=O)[C@H](C)NC(=O)CN(C)C(=O)[C@H](Cc1ccccc1)NC(=O)[C@H](CC(N)=O)NC(=O)[C@H](CC(N)=O)NC(=O)[C@H](CO)NC(=O)[C@H](CO)NC(=O)[C@H](CCCNC(=N)N)NC(=O)[C@H](Cc1c[nH]cn1)NC(=O)[C@H](CC(C)C)NC(=O)[C@H](Cc1ccccc1)NC(=O)[C@H](CCC(=O)O)NC(=O)[C@H](C)NC(=O)[C@H](CC(C)C)NC(=O)[C@H](CCCNC(=N)N)NC(=O)[C@H](CCC(N)=O)NC(=O)[C@@H](NC(=O)[C@H](C)NC(=O)[C@@H]1CSSC[C@H](NC(=O)[C@H](CCCCN)NC(=O)[C@H](CCCCN)NC(=O)CC[C@H](NC(=O)CCCCCCCCCCCCCCCCCCC(=O)O)C(=O)O)C(=O)N[C@@H](CC(N)=O)C(=O)N[C@@H]([C@@H](C)O)C(=O)N[C@@H](C)C(=O)N[C@@H]([C@@H](C)O)C(=O)N1)[C@@H](C)O [Compound 87, [19CD]-isoGlu-KKC()NTATC()ATQRLAEFLHRSSNNF-Gly(Me)-A-Ile(Me)-LSSTNVGSNTP-NH2] ({C20 diacid-γGlu}-KKCNTATCATQRLAEFLHRSSNNF[Sar]A[NMeI]LSSTNVGSNTP-NH2; disulfide 3-8) |  | 78^‡ hours | FND | 50^‡‡ hours | 63 area-% | 39 area-% | 40 area-%
0.095 nM | CC[C@H](C)[C@@H](C(=O)N[C@@H](CC(C)C)C(=O)N[C@@H](CO)C(=O)N[C@@H](CO)C(=O)N[C@H](C(=O)N[C@@H](CC(=O)O)C(=O)N[C@H](C(=O)NCC(=O)N[C@@H](CO)C(=O)N[C@@H](CC(=O)O)C(=O)N[C@H](C(=O)N1CCC[C@H]1C(N)=O)[C@@H](C)O)C(C)C)[C@@H](C)O)N(C)C(=O)[C@H](C)NC(=O)CN(C)C(=O)[C@H](Cc1ccccc1)NC(=O)[C@H](CO)NC(=O)[C@H](CO)NC(=O)[C@H](CCCNC(=N)N)NC(=O)[C@H](Cc1c[nH]cn1)NC(=O)[C@H](CC(C)C)NC(=O)[C@H](Cc1ccccc1)NC(=O)[C@H](CCC(=O)O)NC(=O)[C@H](C)NC(=O)[C@H](CC(C)C)NC(=O)[C@H](CCCNC(=N)N)NC(=O)[C@H](CC(=O)O)NC(=O)[C@@H](NC(=O)[C@H](C)NC(=O)[C@@H]1CSSC[C@H](NC(=O)[C@H](CCCNC(=N)N)NC(=O)CC[C@H](NC(=O)CCCCCCCCCCCCCCCCCCC(=O)O)C(=O)O)C(=O)N2CCC[C@H]2C(=O)N[C@@H]([C@@H](C)O)C(=O)N[C@@H](C)C(=O)N[C@@H]([C@@H](C)O)C(=O)N1)[C@@H](C)O [Compound 172, [19CD]-isoGlu-RC()PTATC()ATDRLAEFLHRSSF-Gly(Me)-A-Ile(Me)-LSSTDVGSDTP-NH2] ({C20 diacid-γGlu}-RCPTATCATDRLAEFLHRSSF[Sar]A[NMeI]LSSTDVGSDTP-NH2; disulfide 2-7) |  | FND | FND | FND |  |  | 
